Test results published in ChEMBL document CHEMBL1201862, “PubChem BioAssay data set” (2004).
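Method: 48-hour compound exposure of cells in 96-well plates, five concentrations, linear interpolation of endpoints. The concentration for 50% growth inhibition is given as GI50.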 Activity calls are given as the source filed them. Rule as the data show it: active = GI50 up to about 1.1 µM and inactive = higher.

How the values were obtained:
Experiment in all cases: NCI tumour cell line growth inhibition, 48 h
SNB-75 = system: SNB-75
KM12 = system: KM12
COLO 205 = system: COLO 205
CAKI-1 = system: CAKI-1
XF498 = system: XF498
A549 = system: A549
EKVX = system: EKVX
DLD-1 = system: DLD-1
K562 = system: K562
SK-MEL-28 = system: SK-MEL-28
OVCAR-4 = system: OVCAR-4
HOP-92 = system: HOP-92
RPMI-8226 = system: RPMI-8226
SF-539 = system: SF-539
HCT-15 = system: HCT-15
HCT-116 = system: HCT-116
HL-60 = system: HL-60
SF-295 = system: SF-295
UO-31 = system: UO-31
SK-MEL-5 = system: SK-MEL-5
RXF 393 = system: RXF 393
SW-620 = system: SW-620
SR = system: SR
SNB-19 = system: SNB-19
TK-10 = system: TK-10
DMS-114 = system: DMS-114
KM-20L2 = system: KM-20L2
U-251 = system: U-251
SN12C = system: SN12C
LOX IMVI = system: LOX IMVI
SNB-78 = system: SNB-78
Malme-3M = system: Malme-3M
M14 = system: M14
OVCAR-5 = system: OVCAR-5
CCRF-CEM = system: CCRF-CEM
OVCAR-8 = system: OVCAR-8
OVCAR-3 = system: OVCAR-3
HOP-62 = system: HOP-62
NCI-H226 = system: NCI-H226
NCI-H460 = system: NCI-H460
HCC 2998 = system: HCC 2998
HT-29 = system: HT-29
SK-MEL-2 = system: SK-MEL-2
NCI-H23 = system: NCI-H23
786-0 = system: 786-0
DMS-273 = system: DMS-273
SK-OV-3 = system: SK-OV-3
NCI-H522 = system: NCI-H522
UACC-62 = system: UACC-62
IGROV-1 = system: IGROV-1
SF-268 = system: SF-268
RXF 631 = system: RXF 631
MOLT-4 = system: MOLT-4
ACHN = system: ACHN
M19-MEL = system: M19-MEL
UACC-257 = system: UACC-257
A498 = system: A498
LXFL 529 = system: LXFL 529

SMILES: Cn1cc(C(=O)C2CCCCC2)ccc1=O
- GI50 (SNB-75): > 100 µM (inactive)
- GI50 (KM12): > 100 µM (inactive)
- GI50 (COLO 205): > 100 µM (inactive)
- GI50 (CAKI-1): > 100 µM (inactive)
- GI50 (XF498): > 100 µM (inactive)
- GI50 (A549): > 100 µM (inactive)
- GI50 (EKVX): > 100 µM (inactive)
- GI50 (DLD-1): > 100 µM (inactive)
- GI50 (K562): > 100 µM (inactive)
- GI50 (SK-MEL-28): > 100 µM (inactive)
- GI50 (OVCAR-4): > 100 µM (inactive)
- GI50 (HOP-92): > 100 µM (inactive)
- GI50 (RPMI-8226): > 100 µM (inactive)
- GI50 (SF-539): > 100 µM (inactive)
- GI50 (HCT-15): > 100 µM
- GI50 (HCT-116): > 100 µM (inactive)
- GI50 (HL-60): > 100 µM (inactive)
- GI50 (SF-295): > 100 µM (inactive)
- GI50 (UO-31): > 100 µM (inactive)
- GI50 (SK-MEL-5): > 100 µM (inactive)
- GI50 (RXF 393): > 100 µM (inactive)
- GI50 (SW-620): > 100 µM (inactive)
- GI50 (SR): > 100 µM (inactive)
- GI50 (SNB-19): > 100 µM (inactive)
- GI50 (TK-10): > 100 µM (inactive)
- GI50 (DMS-114): > 100 µM (inactive)
- GI50 (KM-20L2): > 100 µM (inactive)
- GI50 (U-251): > 100 µM (inactive)
- GI50 (SN12C): > 100 µM (inactive)
- GI50 (LOX IMVI): > 100 µM (inactive)
- GI50 (SNB-78): > 100 µM (inactive)
- GI50 (Malme-3M): > 100 µM (inactive)
- GI50 (M14): > 100 µM (inactive)
- GI50 (OVCAR-5): > 100 µM (inactive)
- GI50 (CCRF-CEM): > 100 µM (inactive)
- GI50 (OVCAR-8): > 100 µM (inactive)
- GI50 (OVCAR-3): > 100 µM (inactive)
- GI50 (HOP-62): > 100 µM (inactive)
- GI50 (NCI-H226): > 100 µM (inactive)
- GI50 (NCI-H460): > 100 µM (inactive)
- GI50 (HCC 2998): > 100 µM (inactive)
- GI50 (HT-29): > 100 µM (inactive)
- GI50 (SK-MEL-2): > 100 µM (inactive)
- GI50 (NCI-H23): > 100 µM (inactive)
- GI50 (786-0): > 100 µM (inactive)
- GI50 (DMS-273): > 100 µM (inactive)
- GI50 (SK-OV-3): > 100 µM (inactive)
- GI50 (NCI-H522): > 100 µM (inactive)
- GI50 (UACC-62): > 100 µM (inactive)
- GI50 (IGROV-1): > 100 µM (inactive)
- GI50 (SF-268): > 100 µM (inactive)
- GI50 (RXF 631): > 100 µM (inactive)
- GI50 (MOLT-4): > 100 µM (inactive)
- GI50 (ACHN): > 100 µM (inactive)

SMILES: CC(/C=C/NNC1=NN=C(c2ccccc2)C(c2ccccc2)N1)Sc1ccccc1N (centres undefined)
- GI50 (SNB-75): 3.3 µM (inactive)
- GI50 (M19-MEL): 9.2 µM (inactive)
- GI50 (KM12): 8.85 µM (inactive)
- GI50 (COLO 205): 15.3 µM (inactive)
- GI50 (CAKI-1): 14.7 µM (inactive)
- GI50 (A549): 11.4 µM (inactive)
- GI50 (EKVX): 18.5 µM (inactive)
- GI50 (DLD-1): 3.62 µM (inactive)
- GI50 (K562): 6.24 µM (inactive)
- GI50 (SK-MEL-28): 8.93 µM (inactive)
- GI50 (OVCAR-4): 6.21 µM (inactive)
- GI50 (HOP-92): 8.39 µM (inactive)
- GI50 (RPMI-8226): 3.64 µM (inactive)
- GI50 (SF-539): 8.24 µM (inactive)
- GI50 (UACC-257): 7.06 µM (inactive)
- GI50 (HCT-15): 4.89 µM
- GI50 (HCT-116): 6.14 µM (inactive)
- GI50 (HL-60): 2.36 µM (inactive)
- GI50 (A498): 13.6 µM (inactive)
- GI50 (SF-295): 10.5 µM (inactive)
- GI50 (UO-31): 6.53 µM (inactive)
- GI50 (SK-MEL-5): 9.66 µM (inactive)
- GI50 (SW-620): 2.75 µM (inactive)
- GI50 (LXFL 529): 4.98 µM (inactive)
- GI50 (SR): 2.99 µM (inactive)
- GI50 (SNB-19): 12.5 µM (inactive)
- GI50 (TK-10): 14.2 µM (inactive)
- GI50 (KM-20L2): 10.6 µM (inactive)
- GI50 (U-251): 2.34 µM (inactive)
- GI50 (SN12C): 5.79 µM (inactive)
- GI50 (LOX IMVI): 3.18 µM (inactive)
- GI50 (SNB-78): 7.31 µM (inactive)
- GI50 (Malme-3M): 7.05 µM (inactive)
- GI50 (M14): 3.41 µM (inactive)
- GI50 (OVCAR-5): 17.5 µM (inactive)
- GI50 (CCRF-CEM): 2.46 µM (inactive)
- GI50 (OVCAR-8): 4.36 µM (inactive)
- GI50 (OVCAR-3): 10.3 µM (inactive)
- GI50 (HOP-62): 17.9 µM (inactive)
- GI50 (NCI-H226): 10.9 µM (inactive)
- GI50 (NCI-H460): 9.98 µM (inactive)
- GI50 (HCC 2998): 15.7 µM (inactive)
- GI50 (HT-29): 11 µM (inactive)
- GI50 (SK-MEL-2): 7.29 µM (inactive)
- GI50 (NCI-H23): 12.9 µM (inactive)
- GI50 (786-0): 3.71 µM (inactive)
- GI50 (DMS-273): 6.7 µM (inactive)
- GI50 (SK-OV-3): 17.1 µM (inactive)
- GI50 (NCI-H522): 3.56 µM (inactive)
- GI50 (UACC-62): 3.39 µM (inactive)
- GI50 (IGROV-1): 14.4 µM (inactive)
- GI50 (SF-268): 4.53 µM (inactive)
- GI50 (RXF 631): 13.1 µM (inactive)
- GI50 (MOLT-4): 3.43 µM (inactive)
- GI50 (ACHN): 10.4 µM (inactive)
